Assays:
[1] = test system: orthotopic HY24409 tumors; assay: Orthotopic HY24409 pancreatic tumors in C57BL/6 mice; format: in vivo, mouse
Procedure: Orthotopic pancreatic tumor size was determined by MRI. Subcutaneous tumor size was measured with a caliper. […] Animal body weight was measured throughout the study.

HPAC cells = assay: qPCR and immunoblotting of PD-L1 and MHC-I in HPAC cells; format: cell-based, human; details: MIFE 20 μM (qPCR) or indicated doses (immunoblot), 72 h
Text: The male PDAC cell lines HY24409 and HY24160 and the female PDAC cell line HY19636 were established from KPC mice (p48-Cre; Kras^LSL-G12D/+; Trp53^loxP/+) that were backcrossed to a C57BL/6 background (purity: ˜ 98%). (See Bardeesy, N., et al. supra). The human PDAC cell lines SU86.86 ([…]), SW1990 ([…]), BXPC-3 ([…]), Miapaca-2 ([…]), Capan-1 ([…]), ASPC-1 ([…]), Hs766T ([…]), Colo357/FG ([…]), L3.6PL ([…]), Panc28 ([…]), Capan-2 ([…]), CF-Pac-1 ([…]), Panc3 (sex unknown), Panc1 ([…]), Panc48 (sex unknown), and HPAC ([…]) were from Mien-Chie Hung's lab stock. The HY24409, HY24160, HY19636, SU86.86, SW1990, and Hs766T cell lines were cultured in RPMI 1640 (Corning, 10-041-CV) supplemented with 10% fetal bovine serum (FBS) (Gibco, 10438-034) and 1% penicillin/streptomycin (Sigma, P4333). The BXPC-3, Miapaca-2, Capan-1, ASPC-1, Colo357/FG, L3.6PL, Panc28, Capan-2, CF-Pac-1, Panc3, Panc1, Panc48, and HPAC cell lines were cultured in DMEM/F-12 (Corning, 10-092-CV) supplemented with 10% FBS and 1% penicillin/streptomycin. Cells were grown in a humidified incubator with 5% CO2 at 37° C., and low-passage stocks were maintained in a centralized lab cell bank. Short tandem repeat profiling and mycoplasma tests were done by the Cytogenetics and Cell Authentication Core at MD Anderson Cancer Center. […]

CC#C[C@]1(O)CC[C@H]2[C@@H]3CCC4=CC(=O)CCC4=C3[C@@H](c3ccc(N(C)C)cc3)C[C@@]21C [mifepristone]
body weight ([1]; C57BL/6 mice bearing orthotopic HY24409 tumors, mifepristone 60 mg kg-1): without significant loss of body weight
orthotopic pancreatic tumor volume (magnetic resonance imaging) and weight ([1]; C57BL/6 mice, HY24409, mifepristone oral gavage 60 mg kg-1, twice every 3 days): substantial reductions
tumor growth inhibition upon antibody-mediated depletion of CD8+ T cells ([1]; C57BL/6 mice, orthotopic HY24409, mifepristone plus anti-CD8 antibody): abolished
reduction in tumor weight at the endpoint ([1]; C57BL/6 mice, orthotopic HY24409, vs vehicle or control shRNA): 67.7%
MHC-I at both mRNA and protein levels (HPAC cells): significantly upregulated
PD-L1 at both mRNA and protein levels (HPAC cells): downregulated

From patent US20250032506A1, “GLUCOCORTICOID RECEPTOR BLOCKADE WITH MIFEPRISTONE TO SENSITIZE PANCREATIC CANCER TO IMMUNOTHERAPY” (BOARD OF REGENTS, THE UNIVERSITY OF TEXAS SYSTEM, priority 2021, published 2025)
